Experimental data as given in ChEMBL document CHEMBL4190187, “Discovery of pyrazolopyrimidine derivatives as novel inhibitors of ataxia telangiectasia and rad3 related protein (ATR)” (Bioorg Med Chem Lett, 2017).

Assays:
[1] = biological target: Receptor tyrosine-protein kinase erbB-4 (Homo sapiens) (UniProt Q15303); assay: Inhibition of recombinant human ErbB4 (706 to 991 residues) at 1 uM using poly(Glu,Tyr) 4:1 as substrate after 40 mins in presence of [gamma-33P]ATP by scintillation counting method
[2] = biological target: Serine/threonine-protein kinase WNK2 (Homo sapiens) (UniProt Q9Y3S1); assay: Inhibition of recombinant human WNK2 (166 to 489 residues) at 1 uM using myelin basic protein as substrate after 40 mins in presence of [gamma-33P]ATP by scintillation counting method
[3] = Metabolic stability in mouse liver microsomes assessed as compound remaining at 1 uM in presence of NADPH as cofactor measured after 30 mins by LC-MS/MS method; type: ADME, microsome; settings: read-out: Stability
[4] = biological target: Activin receptor type-1B (Homo sapiens) (UniProt P36896); assay: Inhibition of recombinant human ALK4 (150 to end residues) at 1 uM using casein as substrate after 40 mins in presence of [gamma-33P]ATP by scintillation counting method
[5] = biological target: RAC-alpha serine/threonine-protein kinase (Homo sapiens) (UniProt P31749); assay: Inhibition of recombinant full-length human PKBalpha at 1 uM using GRPRTSSFAEGKK as substrate after 40 mins in presence of [gamma-33P]ATP by scintillation counting method
[6] = biological target: Receptor-interacting serine/threonine-protein kinase 2 (Homo sapiens) (UniProt O43353); assay: Inhibition of recombinant human RIPK2 (1 to 299 residues) at 1 uM using myelin basic protein as substrate after 120 mins in presence of [gamma-33P]ATP by scintillation counting method
[7] = biological target: Cyclin-dependent kinase 5/CDK5 activator 1 (Homo sapiens) (UniProt Q00535+Q15078); assay: Inhibition of recombinant full-length human CDK5/P25 at 1 uM using histone H1 as substrate after 40 mins in presence of [gamma-33P]ATP by scintillation counting method; type: protein-complex assay
[8] = biological target: Serine/threonine-protein kinase 32C (Homo sapiens) (UniProt Q86UX6); assay: Inhibition of recombinant full-length human STK32C at 1 uM using casein as substrate after 120 mins in presence of [gamma-33P]ATP by scintillation counting method
[9] = biological target: NT-3 growth factor receptor (Homo sapiens) (UniProt Q16288); assay: Inhibition of recombinant human TrkC (510 to end residues) at 1 uM using GEEPLYWSFPAKKK as substrate after 40 mins in presence of [gamma-33P]ATP by scintillation counting method
[10] = biological target: Protein kinase C alpha type (Homo sapiens) (UniProt P17252); assay: Inhibition of recombinant full-length human PKCalpha at 1 uM using histone H1 as substrate after 40 mins in presence of [gamma-33P]ATP by scintillation counting method
[11] = biological target: Ribosomal protein S6 kinase alpha-3 (Homo sapiens) (UniProt P51812); assay: Inhibition of recombinant human Rsk2 (2 to end residues) at 1 uM using KKKNRTLSVA as substrate after 40 mins in presence of [gamma-33P]ATP by scintillation counting method
[12] = biological target: Insulin receptor (Homo sapiens) (UniProt P06213); assay: Inhibition of recombinant human activated IR (1005 to 1310 residues) at 1 uM using KKKSPGEYVNIEFG as substrate after 40 mins in presence of [gamma-33P]ATP by scintillation counting method
[13] = biological target: Serine/threonine-protein kinase pim-3 (Homo sapiens) (UniProt Q86V86); assay: Inhibition of recombinant human PIM3 (2 to end residues) at 1 uM using RSRHSSYPAGT as substrate after 40 mins in presence of [gamma-33P]ATP by scintillation counting method
[14] = biological target: Serine/threonine-protein kinase NIM1 (Homo sapiens) (UniProt Q8IY84); assay: Inhibition of recombinant full-length human NIM1 at 1 uM using KKKVSRSGLYRSPSMPENLNRPR as substrate after 40 mins in presence of [gamma-33P]ATP by scintillation counting method
[15] = biological target: Tyrosine-protein kinase ABL2 (Mus musculus) (UniProt Q4JIM5); assay: Inhibition of A562 insertion recombinant mouse ARG (27 to end residues) at 1 uM using EAIYAAPFAKKK as substrate after 40 mins in presence of [gamma-33P]ATP by scintillation counting method
[16] = biological target: Serine/threonine-protein kinase VRK2 (Homo sapiens) (UniProt Q86Y07); assay: Inhibition of recombinant human VRK2 (1 to 336 residues) at 1 uM using casein as substrate after 40 mins in presence of [gamma-33P]ATP by scintillation counting method
[17] = biological target: Death-associated protein kinase 3 (Homo sapiens) (UniProt O43293); assay: Inhibition of recombinant human ZIPK (1 to 290 residues) at 1 uM using KKLNRTLSFAEPG as substrate after 40 mins in presence of [gamma-33P]ATP by scintillation counting method
[18] = test system: Mast/stem cell growth factor receptor Kit (Homo sapiens), P10721 [D816V]; assay: Inhibition of recombinant human cKit D816V mutant (544 to end residues) at 1 uM using poly(Glu,Tyr) 4:1 as substrate after 40 mins in presence of [gamma-33P]ATP by scintillation counting method
[19] = biological target: Leukocyte tyrosine kinase receptor (Homo sapiens) (UniProt P29376); assay: Inhibition of recombinant human LTK (450 to end residues) at 1 uM using GEEPLYWSFPAKKK as substrate after 40 mins in presence of [gamma-33P]ATP by scintillation counting method
[20] = biological target: Vascular endothelial growth factor receptor 1 (Homo sapiens) (UniProt P17948); assay: Inhibition of recombinant human Flt1 (783 to end residues) at 1 uM using KKKSPGEYVNIEFG as substrate after 40 mins in presence of [gamma-33P]ATP by scintillation counting method
[21] = biological target: Inhibitor of nuclear factor kappa-B kinase subunit alpha (Homo sapiens) (UniProt O15111); assay: Inhibition of recombinant full-length human IKKalpha at 1 uM using peptide as substrate after 40 mins in presence of [gamma-33P]ATP by scintillation counting method
[22] = biological target: PI3K p110 beta/p85 alpha (Homo sapiens) (UniProt P27986+P42338); assay: Inhibition of recombinant full-length human p110b/p85a at 1 uM using phosphatidylinositol 4,5-bisphosphate as substrate after 40 mins in presence of [gamma-33P]ATP by scintillation counting method; type: protein-complex assay
[23] = test system: PI3-kinase p110-alpha/p85-alpha (Homo sapiens), P27986+P42336 [E545K]; assay: Inhibition of recombinant full-length human p110a E545K mutant/p85a at 1 uM using phosphatidylinositol 4,5-bisphosphate as substrate after 40 mins in presence of [gamma-33P]ATP by scintillation counting method; type: protein-complex assay
[24] = biological target: Serine/threonine-protein kinase PLK3 (Homo sapiens) (UniProt Q9H4B4); assay: Inhibition of recombinant human Plk3 (19 to 301 residues) at 1 uM using casein as substrate after 40 mins in presence of [gamma-33P]ATP by scintillation counting method
Serine/threonine-protein kinase PLK3 (Homo sapiens), sequence (Q9H4B4 whole entry, looked up, the tested form may be a part): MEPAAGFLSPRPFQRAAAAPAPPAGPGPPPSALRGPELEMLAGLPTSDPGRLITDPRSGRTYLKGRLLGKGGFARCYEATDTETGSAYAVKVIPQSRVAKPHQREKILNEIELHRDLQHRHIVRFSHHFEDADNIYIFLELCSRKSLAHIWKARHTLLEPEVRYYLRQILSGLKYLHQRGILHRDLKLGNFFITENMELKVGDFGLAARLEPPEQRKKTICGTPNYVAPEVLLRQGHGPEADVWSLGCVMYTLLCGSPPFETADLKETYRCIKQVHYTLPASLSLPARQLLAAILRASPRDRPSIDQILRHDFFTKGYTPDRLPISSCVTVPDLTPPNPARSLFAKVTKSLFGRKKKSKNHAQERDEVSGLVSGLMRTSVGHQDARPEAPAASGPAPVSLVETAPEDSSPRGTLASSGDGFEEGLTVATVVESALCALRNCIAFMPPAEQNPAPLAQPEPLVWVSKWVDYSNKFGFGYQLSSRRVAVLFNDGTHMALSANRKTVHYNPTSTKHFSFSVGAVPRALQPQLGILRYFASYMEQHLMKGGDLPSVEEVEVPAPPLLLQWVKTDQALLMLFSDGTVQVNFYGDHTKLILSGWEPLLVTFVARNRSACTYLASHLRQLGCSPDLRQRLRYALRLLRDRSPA

Tyrosine-protein kinase ABL2 (Mus musculus), sequence (Q4JIM5 whole entry, the tested form may be a part): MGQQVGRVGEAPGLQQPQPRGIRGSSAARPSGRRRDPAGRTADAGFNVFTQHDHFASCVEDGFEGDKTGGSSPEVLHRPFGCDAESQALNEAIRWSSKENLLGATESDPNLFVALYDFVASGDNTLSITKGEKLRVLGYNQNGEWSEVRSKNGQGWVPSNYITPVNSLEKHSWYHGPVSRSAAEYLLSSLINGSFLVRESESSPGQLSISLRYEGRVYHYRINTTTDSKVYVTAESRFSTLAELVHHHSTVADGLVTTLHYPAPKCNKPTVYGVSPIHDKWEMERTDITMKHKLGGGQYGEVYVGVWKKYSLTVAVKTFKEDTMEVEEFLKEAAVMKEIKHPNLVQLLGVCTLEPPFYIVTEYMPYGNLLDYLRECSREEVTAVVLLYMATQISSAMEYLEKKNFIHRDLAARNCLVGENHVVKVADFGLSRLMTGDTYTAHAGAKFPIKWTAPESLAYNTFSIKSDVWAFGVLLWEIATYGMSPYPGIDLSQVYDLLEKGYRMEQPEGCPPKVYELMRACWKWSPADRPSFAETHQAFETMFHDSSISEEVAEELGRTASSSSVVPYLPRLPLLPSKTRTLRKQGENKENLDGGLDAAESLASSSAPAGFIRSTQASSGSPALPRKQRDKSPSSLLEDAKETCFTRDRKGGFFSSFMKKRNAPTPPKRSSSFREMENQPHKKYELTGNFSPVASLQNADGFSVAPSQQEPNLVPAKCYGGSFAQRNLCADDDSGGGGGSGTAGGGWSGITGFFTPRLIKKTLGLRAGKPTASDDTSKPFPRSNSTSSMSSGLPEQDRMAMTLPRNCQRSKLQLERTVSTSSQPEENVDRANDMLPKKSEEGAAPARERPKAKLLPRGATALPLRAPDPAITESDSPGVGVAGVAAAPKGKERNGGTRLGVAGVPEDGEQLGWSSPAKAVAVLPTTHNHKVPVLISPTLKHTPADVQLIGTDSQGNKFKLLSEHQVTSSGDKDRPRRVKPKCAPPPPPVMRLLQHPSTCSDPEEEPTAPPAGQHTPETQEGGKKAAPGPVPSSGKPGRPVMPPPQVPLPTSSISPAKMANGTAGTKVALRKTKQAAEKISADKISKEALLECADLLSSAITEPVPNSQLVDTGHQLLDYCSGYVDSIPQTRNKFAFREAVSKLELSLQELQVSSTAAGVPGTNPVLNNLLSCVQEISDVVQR
Serine/threonine-protein kinase 32C (Homo sapiens), sequence (Q86UX6 whole entry): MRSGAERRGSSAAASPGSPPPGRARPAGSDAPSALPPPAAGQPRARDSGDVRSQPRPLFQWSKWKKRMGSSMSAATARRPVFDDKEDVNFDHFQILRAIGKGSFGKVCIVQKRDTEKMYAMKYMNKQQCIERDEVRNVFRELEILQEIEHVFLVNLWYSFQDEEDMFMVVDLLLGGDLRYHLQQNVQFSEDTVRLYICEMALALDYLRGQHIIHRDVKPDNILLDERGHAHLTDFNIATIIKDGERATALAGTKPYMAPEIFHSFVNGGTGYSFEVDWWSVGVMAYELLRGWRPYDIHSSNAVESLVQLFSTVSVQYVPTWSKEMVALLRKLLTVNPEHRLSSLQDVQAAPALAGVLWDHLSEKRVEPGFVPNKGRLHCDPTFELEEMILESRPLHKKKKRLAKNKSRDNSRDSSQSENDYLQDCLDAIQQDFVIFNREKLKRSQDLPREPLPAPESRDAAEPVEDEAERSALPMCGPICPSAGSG
Serine/threonine-protein kinase NIM1 (Homo sapiens), sequence (Q8IY84 whole entry): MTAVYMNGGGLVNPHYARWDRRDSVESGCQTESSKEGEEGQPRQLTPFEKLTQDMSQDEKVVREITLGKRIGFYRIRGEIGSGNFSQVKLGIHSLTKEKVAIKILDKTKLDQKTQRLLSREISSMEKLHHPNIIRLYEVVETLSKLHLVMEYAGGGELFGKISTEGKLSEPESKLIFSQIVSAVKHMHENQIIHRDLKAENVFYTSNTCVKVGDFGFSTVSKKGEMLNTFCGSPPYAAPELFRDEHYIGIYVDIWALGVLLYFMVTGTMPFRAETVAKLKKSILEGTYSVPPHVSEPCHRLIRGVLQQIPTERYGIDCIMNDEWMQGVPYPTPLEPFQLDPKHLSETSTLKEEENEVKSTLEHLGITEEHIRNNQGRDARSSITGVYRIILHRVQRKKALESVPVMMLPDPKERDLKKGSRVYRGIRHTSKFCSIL
PI3K p110 beta/p85 alpha (Homo sapiens), sequence (P27986 2-724 limits assumed): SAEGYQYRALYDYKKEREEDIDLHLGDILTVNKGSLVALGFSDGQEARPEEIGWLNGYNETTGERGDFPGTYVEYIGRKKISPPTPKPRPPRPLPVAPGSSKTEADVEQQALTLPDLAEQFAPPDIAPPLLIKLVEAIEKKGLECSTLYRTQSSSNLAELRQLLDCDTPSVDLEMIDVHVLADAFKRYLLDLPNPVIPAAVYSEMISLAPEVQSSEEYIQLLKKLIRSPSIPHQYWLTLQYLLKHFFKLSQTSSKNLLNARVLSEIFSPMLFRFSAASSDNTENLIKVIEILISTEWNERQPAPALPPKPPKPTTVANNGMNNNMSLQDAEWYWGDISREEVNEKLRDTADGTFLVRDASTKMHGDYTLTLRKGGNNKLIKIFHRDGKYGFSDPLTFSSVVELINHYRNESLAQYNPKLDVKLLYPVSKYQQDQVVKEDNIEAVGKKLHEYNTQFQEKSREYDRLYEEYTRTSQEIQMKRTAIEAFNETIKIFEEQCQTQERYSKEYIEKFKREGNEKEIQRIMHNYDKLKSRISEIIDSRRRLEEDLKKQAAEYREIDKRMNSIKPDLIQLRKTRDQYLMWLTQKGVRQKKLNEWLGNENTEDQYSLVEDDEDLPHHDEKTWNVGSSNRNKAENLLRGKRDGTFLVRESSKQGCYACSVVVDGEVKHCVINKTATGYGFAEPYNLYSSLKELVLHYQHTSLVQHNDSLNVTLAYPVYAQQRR
PI3K p110 beta/p85 alpha (Homo sapiens), sequence (P42338 whole entry partner): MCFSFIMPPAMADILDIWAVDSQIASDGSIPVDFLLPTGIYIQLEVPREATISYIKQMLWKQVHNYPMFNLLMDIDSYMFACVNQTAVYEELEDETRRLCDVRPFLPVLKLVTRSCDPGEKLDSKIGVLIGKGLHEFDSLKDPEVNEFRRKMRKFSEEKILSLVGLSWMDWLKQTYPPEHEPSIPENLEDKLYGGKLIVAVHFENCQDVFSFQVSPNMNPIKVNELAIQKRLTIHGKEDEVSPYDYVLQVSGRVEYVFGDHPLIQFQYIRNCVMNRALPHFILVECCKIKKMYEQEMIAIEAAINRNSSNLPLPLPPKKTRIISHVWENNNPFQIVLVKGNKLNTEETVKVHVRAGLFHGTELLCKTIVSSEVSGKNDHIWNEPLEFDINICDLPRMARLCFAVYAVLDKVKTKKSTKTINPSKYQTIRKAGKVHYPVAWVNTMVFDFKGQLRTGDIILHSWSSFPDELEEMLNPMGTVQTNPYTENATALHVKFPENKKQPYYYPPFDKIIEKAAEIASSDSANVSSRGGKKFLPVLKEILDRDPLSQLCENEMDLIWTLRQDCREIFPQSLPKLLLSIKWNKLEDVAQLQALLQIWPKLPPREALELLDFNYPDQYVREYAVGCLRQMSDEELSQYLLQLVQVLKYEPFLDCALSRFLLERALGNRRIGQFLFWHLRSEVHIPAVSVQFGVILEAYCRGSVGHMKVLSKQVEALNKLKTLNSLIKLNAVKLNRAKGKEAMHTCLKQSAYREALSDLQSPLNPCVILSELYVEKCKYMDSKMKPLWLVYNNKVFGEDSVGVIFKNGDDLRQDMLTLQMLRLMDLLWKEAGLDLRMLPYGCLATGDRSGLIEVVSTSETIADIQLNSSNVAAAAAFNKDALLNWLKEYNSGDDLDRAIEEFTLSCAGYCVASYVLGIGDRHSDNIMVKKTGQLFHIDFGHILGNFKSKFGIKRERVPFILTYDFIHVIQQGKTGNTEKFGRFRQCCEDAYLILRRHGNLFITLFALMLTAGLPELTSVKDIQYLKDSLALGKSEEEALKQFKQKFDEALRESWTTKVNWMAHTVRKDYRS
RAC-alpha serine/threonine-protein kinase (Homo sapiens), sequence (P31749 whole entry, the tested form may be a part): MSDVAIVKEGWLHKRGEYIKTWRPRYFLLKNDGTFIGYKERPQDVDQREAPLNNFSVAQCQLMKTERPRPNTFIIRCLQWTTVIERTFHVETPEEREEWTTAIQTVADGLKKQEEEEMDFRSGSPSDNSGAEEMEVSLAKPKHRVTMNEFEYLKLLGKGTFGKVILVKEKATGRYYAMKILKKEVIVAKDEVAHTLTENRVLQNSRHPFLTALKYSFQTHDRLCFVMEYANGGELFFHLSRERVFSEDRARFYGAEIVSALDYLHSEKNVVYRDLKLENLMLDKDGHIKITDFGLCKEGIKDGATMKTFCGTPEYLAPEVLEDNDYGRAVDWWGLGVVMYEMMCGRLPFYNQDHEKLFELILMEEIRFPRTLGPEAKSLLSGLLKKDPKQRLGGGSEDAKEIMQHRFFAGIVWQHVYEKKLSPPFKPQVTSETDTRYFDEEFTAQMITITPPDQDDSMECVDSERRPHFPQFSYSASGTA

**Q.** Which inhibition [1] does the source give for `CS(=O)(=O)c1ccc(-n2nc(-c3cnc4[nH]ccc4c3)c3c(N)ncnc32)cc1` here?
**A.** The inhibition was 4%.

**Q.** What about the inhibition [2] of the same compound?
**A.** Its inhibition is 23%.

**Q.** And the remaining at 0.5 h, 1 µM [3]?
**A.** The remaining at 0.5 h, 1 µM was 79%.

**Q.** And the inhibition [4]?
**A.** Its inhibition is 80%.

**Q.** What about the inhibition [5] of the same compound?
**A.** The inhibition was -1%.

**Q.** What about the inhibition [6] of the same compound?
**A.** Its inhibition is 70%.

**Q.** And the inhibition [7]?
**A.** The inhibition was -1%.

**Q.** What about the inhibition [8] of the same compound?
**A.** The inhibition was 5%.

**Q.** What about the inhibition [9] of the same compound?
**A.** Its inhibition is 2%.

**Q.** What about the inhibition [10] of the same compound?
**A.** The inhibition was -1%.

**Q.** What about the inhibition [11] of the same compound?
**A.** Its inhibition is -5%.

**Q.** And the inhibition [12]?
**A.** The inhibition was 14%.

**Q.** And the inhibition [13]?
**A.** The inhibition was -1%.

**Q.** And the inhibition [14]?
**A.** The inhibition was -5%.

**Q.** What about the inhibition [15] of the same compound?
**A.** The inhibition was 69%.

**Q.** What about the inhibition [16] of the same compound?
**A.** Its inhibition is 0%.

**Q.** What about the inhibition [17] of the same compound?
**A.** The inhibition was 0%.

**Q.** And the inhibition [18]?
**A.** The inhibition was -2%.

**Q.** And the inhibition [19]?
**A.** Its inhibition is -3%.

**Q.** And the inhibition [20]?
**A.** Its inhibition is 59%.

**Q.** What about the inhibition [21] of the same compound?
**A.** Its inhibition is -5%.

**Q.** And the inhibition [22]?
**A.** Its inhibition is 0%.

**Q.** What about the inhibition [23] of the same compound?
**A.** The inhibition was 8%.

**Q.** What about the inhibition [24] of the same compound?
**A.** Its inhibition is 3%.
